Peptide text beside a SMILES is read from it.
Tested on: Botrytis cinerea (B05.10)
Test: Resazurin antifungal assay of 180 alpha-factor peptide variants towards Botrytis (Example 2)
Assay type: cell-based
Set-up: key to active against Botrytis at 15 μM / active against Botrytis at 10 μM: Peptides that showed greater than 90% inhibition were considered active against Botrytis
Settings: for Inhibition at 50 μM: peptide 50 μM; for Inhibition at 100 μM: peptide 100 μM; for Inhibition at 10 μM: peptide 10 μM; for Inhibition at 20 μM: peptide 20 μM
In short: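 Resazurin viability read-out (570/620 nm fluorescence) after a 24 h, 20° C incubation of B05.10 conidia, 5000 per well, with peptide at final 10-100 μM. Growth inhibition (%) was derived by subtracting conidia-only fluorescence; four replicates per treatment.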

[1] = % inhibition of fungal growth, Botrytis conidia, resazurin

Compound	Inhibition at 50 μM [1] [%]	Inhibition at 100 μM [1] [%]	Inhibition at 10 μM [1] [%]	Inhibition at 15 μM (% inhibition of fungal growth, Botrytis conidia, peptide 15 μM, resazurin) [%]	Inhibition at 20 μM [1] [%]	active against Botrytis at 15 μM (peptide 15 μM)
CC[C@H](C)[C@H](NC(=O)[C@H](CO)NC(=O)[C@H](CC(C)C)NC(=O)CNC(=O)[C@H](Cc1c[nH]cn1)NC(=O)[C@@H]1CCCN1)C(=O)N[C@@H](Cc1ccc(O)cc1)C(=O)N1CCC[C@H]1C(=O)NCC(=O)N[C@@H](CCC(N)=O)C(=O)N1CCC[C@H]1C(=O)N[C@@H](CCSC)C(=O)N[C@@H](Cc1ccc(O)cc1)C(=O)O [compound 142] (H-PHGLSIYPGQPMY-OH; N-terminus and C-terminus assumed)	<90	<90				
CC[C@H](C)[C@H](NC(=O)[C@H](CCCCN)NC(=O)[C@@H](NC(=O)[C@H](CCCCN)NC(=O)[C@H](CC(C)C)NC(=O)[C@H](Cc1c[nH]c2ccccc12)NC(=O)[C@H](Cc1c[nH]cn1)NC(=O)[C@@H](N)CCCCN)[C@@H](C)CC)C(=O)NCC(=O)N[C@@H](CCC(=O)O)C(=O)N1CCC[C@H]1C(=O)N[C@@H](CCSC)C(=O)N[C@@H](Cc1ccc(O)cc1)C(=O)O [compound 62] (H-KHWLKIKIGEPMY-OH; N-terminus and C-terminus assumed)	100	100	<90	98.89	100	active
CC[C@H](C)[C@H](NC(=O)[C@H](CCC(N)=O)NC(=O)[C@H](CC(C)C)NC(=O)CNC(=O)[C@H](CO)NC(=O)[C@@H]1CCCN1)C(=O)N[C@@H](CCCCN)C(=O)N[C@H](C(=O)NCC(=O)N[C@@H](CCC(N)=O)C(=O)N1CCC[C@H]1C(=O)N[C@@H](CCSC)C(=O)N[C@@H](Cc1ccc(O)cc1)C(=O)O)C(C)C [compound 121] (H-PSGLQIKVGQPMY-OH; N-terminus and C-terminus assumed)	<90	<90				
CSCC[C@H](NC(=O)[C@@H]1CCCN1C(=O)[C@H](CCC(N)=O)NC(=O)CNC(=O)[C@H](CCCNC(=N)N)NC(=O)[C@H](CCCCN)NC(=O)[C@H](CC(C)C)NC(=O)[C@H](CCC(N)=O)NC(=O)[C@H](CC(C)C)NC(=O)[C@@H](NC(=O)[C@H](Cc1c[nH]cn1)NC(=O)[C@@H](N)CCCCN)[C@@H](C)O)C(=O)N[C@@H](Cc1ccc(O)cc1)C(=O)O [compound 93] (H-KHTLQLKRGQPMY-OH; N-terminus and C-terminus assumed)	97.77	100	<90		<90	
CSCC[C@H](NC(=O)[C@@H]1CCCN1C(=O)[C@H](CCC(N)=O)NC(=O)CNC(=O)[C@@H]1CCCN1C(=O)[C@H](Cc1c[nH]c2ccccc12)NC(=O)[C@H](CC(C)C)NC(=O)[C@H](CCCCN)NC(=O)[C@H](CC(C)C)NC(=O)[C@H](Cc1ccccc1)NC(=O)[C@H](Cc1c[nH]cn1)NC(=O)[C@@H](N)CCCCN)C(=O)N[C@@H](Cc1ccc(O)cc1)C(=O)O [compound 17] (H-KHFLKLWPGQPMY-OH; N-terminus and C-terminus assumed)	100	100	<90		<90	
CC[C@H](C)[C@H](NC(=O)[C@@H](NC(=O)[C@H](Cc1c[nH]cn1)NC(=O)[C@@H]1CCCN1)[C@@H](C)O)C(=O)N[C@@H](CCC(N)=O)C(=O)N[C@@H](CC(C)C)C(=O)N[C@@H](Cc1c[nH]c2ccccc12)C(=O)N[C@@H](CCCCN)C(=O)NCC(=O)N[C@@H](CCC(N)=O)C(=O)N1CCC[C@H]1C(=O)N[C@@H](CCSC)C(=O)N[C@@H](Cc1ccc(O)cc1)C(=O)O [compound 169] (H-PHTIQLWKGQPMY-OH; N-terminus and C-terminus assumed)	<90	<90				
CSCC[C@H](NC(=O)[C@@H]1CCCN1C(=O)[C@H](CO)NC(=O)CNC(=O)[C@@H]1CCCN1C(=O)[C@H](CCCCN)NC(=O)[C@H](Cc1ccccc1)NC(=O)[C@H](C)NC(=O)[C@@H](NC(=O)[C@H](Cc1c[nH]c2ccccc12)NC(=O)[C@H](Cc1c[nH]cn1)NC(=O)[C@@H]1CCCN1)C(C)C)C(=O)N[C@@H](Cc1ccc(O)cc1)C(=O)O [compound 161] (H-PHWVAFKPGSPMY-OH; N-terminus and C-terminus assumed)	<90	90.52				
CSCC[C@H](NC(=O)[C@@H]1CCCN1C(=O)[C@H](CCC(N)=O)NC(=O)CNC(=O)[C@@H]1CCCN1C(=O)[C@H](CCCCN)NC(=O)[C@H](CC(C)C)NC(=O)[C@H](CCCNC(=N)N)NC(=O)[C@H](CC(C)C)NC(=O)[C@H](Cc1ccccc1)NC(=O)[C@H](Cc1c[nH]cn1)NC(=O)[C@@H]1CCCN1)C(=O)N[C@@H](Cc1ccc(O)cc1)C(=O)O [compound 112] (H-PHFLRLKPGQPMY-OH; N-terminus and C-terminus assumed)	<90	99.57				
CC[C@H](C)[C@H](NC(=O)[C@H](Cc1c[nH]cn1)NC(=O)[C@@H](N)Cc1c[nH]c2ccccc12)C(=O)N[C@@H](CC(C)C)C(=O)N[C@@H](CCCNC(=N)N)C(=O)N[C@@H](Cc1ccccc1)C(=O)N[C@@H](CCCCN)C(=O)N[C@@H](CC(N)=O)C(=O)NCC(=O)N[C@@H](CCSC)C(=O)N1CCC[C@H]1C(=O)N[C@@H](CCSC)C(=O)N[C@@H](Cc1ccc(O)cc1)C(=O)O [compound 105] (H-WHILRFKNGMPMY-OH; N-terminus and C-terminus assumed)	<90	100	<90		<90	
CSCC[C@H](NC(=O)[C@@H]1CCCN1C(=O)[C@H](CCC(N)=O)NC(=O)CNC(=O)[C@@H]1CCCN1C(=O)[C@H](Cc1c[nH]cn1)NC(=O)[C@H](CC(C)C)NC(=O)[C@H](CCC(=O)O)NC(=O)[C@H](CC(C)C)NC(=O)CNC(=O)[C@H](CCC(N)=O)NC(=O)[C@@H](N)Cc1c[nH]c2ccccc12)C(=O)N[C@@H](Cc1ccc(O)cc1)C(=O)O [compound 129] (H-WQGLELHPGQPMY-OH; N-terminus and C-terminus assumed)	<90	<90				
CC[C@H](C)[C@H](NC(=O)[C@H](CCC(N)=O)NC(=O)[C@@H](NC(=O)[C@H](Cc1c[nH]c2ccccc12)NC(=O)[C@H](CCCCN)NC(=O)[C@@H](N)Cc1c[nH]c2ccccc12)C(C)C)C(=O)N[C@@H](CCCCN)C(=O)N[C@@H](CCCCN)C(=O)NCC(=O)N[C@@H](C)C(=O)N1CCC[C@H]1C(=O)N[C@@H](CCSC)C(=O)N[C@@H](Cc1ccc(O)cc1)C(=O)O [compound 58] (H-WKWVQIKKGAPMY-OH; N-terminus and C-terminus assumed)	100	100	<90		<90	
CSCC[C@H](NC(=O)[C@@H]1CCCN1C(=O)[C@H](CCC(N)=O)NC(=O)CNC(=O)[C@@H]1CCCN1C(=O)[C@H](Cc1c[nH]c2ccccc12)NC(=O)[C@H](CC(C)C)NC(=O)[C@H](CCC(=O)O)NC(=O)[C@H](CC(C)C)NC(=O)[C@H](CC(=O)O)NC(=O)[C@H](Cc1c[nH]cn1)NC(=O)[C@@H](N)CCCCN)C(=O)N[C@@H](Cc1ccc(O)cc1)C(=O)O [compound 47] (H-KHDLELWPGQPMY-OH; N-terminus and C-terminus assumed)	<90	<90				
CSCC[C@H](NC(=O)[C@@H]1CCCN1C(=O)[C@H](CCC(N)=O)NC(=O)CNC(=O)[C@@H]1CCCN1C(=O)[C@H](CCCCN)NC(=O)[C@H](CC(C)C)NC(=O)[C@H](CCC(N)=O)NC(=O)CNC(=O)[C@H](CO)NC(=O)[C@H](CCC(N)=O)NC(=O)[C@@H](N)Cc1c[nH]c2ccccc12)C(=O)N[C@@H](Cc1ccc(O)cc1)C(=O)O [compound 117] (H-WQSGQLKPGQPMY-OH; N-terminus and C-terminus assumed)	<90	<90				
CSCC[C@H](NC(=O)[C@@H]1CCCN1C(=O)[C@H](CCC(N)=O)NC(=O)CNC(=O)[C@@H](NC(=O)[C@H](CCC(N)=O)NC(=O)[C@H](Cc1ccccc1)NC(=O)[C@H](CC(N)=O)NC(=O)CNC(=O)[C@H](Cc1c[nH]c2ccccc12)NC(=O)[C@H](Cc1c[nH]cn1)NC(=O)[C@@H](N)Cc1c[nH]c2ccccc12)[C@@H](C)O)C(=O)N[C@@H](Cc1ccc(O)cc1)C(=O)O [compound 157] (H-WHWGNFQTGQPMY-OH; N-terminus and C-terminus assumed)	<90	97.14				
CSCC[C@H](NC(=O)[C@@H]1CCCN1C(=O)[C@H](CO)NC(=O)CNC(=O)[C@@H]1CCCN1C(=O)CNC(=O)[C@H](Cc1ccccc1)NC(=O)[C@H](CCC(N)=O)NC(=O)[C@@H](NC(=O)[C@H](Cc1c[nH]c2ccccc12)NC(=O)[C@H](Cc1c[nH]cn1)NC(=O)[C@@H](N)Cc1c[nH]c2ccccc12)C(C)C)C(=O)N[C@@H](Cc1ccc(O)cc1)C(=O)O [compound 111] (H-WHWVQFGPGSPMY-OH; N-terminus and C-terminus assumed)	<90	96.65	<90		<90	
CSCC[C@H](NC(=O)[C@@H]1CCCN1C(=O)[C@H](CO)NC(=O)CNC(=O)[C@H](CC(N)=O)NC(=O)[C@H](CCCCN)NC(=O)[C@H](CC(C)C)NC(=O)[C@H](CCC(N)=O)NC(=O)[C@@H](NC(=O)[C@H](CC(=O)O)NC(=O)[C@H](Cc1c[nH]cn1)NC(=O)[C@@H](N)CCCCN)C(C)C)C(=O)N[C@@H](Cc1ccc(O)cc1)C(=O)O [compound 156] (H-KHDVQLKNGSPMY-OH; N-terminus and C-terminus assumed)	<90	<90				

Reference: patent US20250382332A1, “NOVEL ALPHA-FACTOR BASED PEPTIDES WITH ANTIFUNGAL ACTIVITY” (INVAIO SCIENCES, INC., priority 2024, published 2025)
